Laboratory results from patent publication US7538120B2, “Method of treating inflammatory diseases” (Array Biopharma Inc., priority 2003, dated 2009).
Entries after “also recorded” stand apart in the source; their conditions may differ.

Tests used:
[1] = test system: type II collagen-induced arthritis in rats; test: Established type II collagen-induced arthritis (CIA) in rats; assay type: in vivo
Experimental: Type II collagen-induced arthritis (CIA) in rats is an experimental model of arthritis that has a number of pathologic, immunologic, and genetic features in common with rheumatoid arthritis.
Female Lewis rats (7-9 weeks of age; 8 per group for arthritis, 4 per group for normal control) were acclimated for 7 days after arrival.
Acclimated animals were anesthetized with Isoflurane. The disease was induced by immunization of the rats with type II collagen (equal mixture of 4 mg/mL bovine type II collagen in 0.01 N acetic acid and Freund's incomplete adjuvant) by injection (day 0). On day 6, the rats were anesthetized again for the second collagen injection. Each animal received 300 μL of the collagen mixture on days 0 and 6, which was spread over 3 sites on the back.
Caliper measurements of normal (pre-disease) right and left ankle joints were taken on day 9 post-collagen injection. On days 10-11, onset of arthritis occurred and rats were randomized into treatment groups. Randomization into each group was done after ankle joint swelling was established in at least one hind paw.
Once enrolled in the treatment groups, treatment with once daily oral dosing of AR-14 (1, 3, 10, 30 or 60 mg/kg) or indomethacin (1 mg/kg) was initiated. Animals receiving vehicle or compound were enrolled and daily dosing was initiated using a volume of 5 mL/kg for oral solutions. ENBREL (etanercept) treatment was on days 11 and 15 (10 mg/kg) by subcutaneous administration. Rats were weighed on days 11-18 and caliper measurements of ankles were taken every day. Final body weights were taken on day 19. On day 19, animals were euthanized, both hind paws and knees were removed, hind paws were weighed and then (with knees) placed in formalin.
Following 1-2 days in fixative and then 4-5 days in decalcifier, the ankle joints and knees were processed, embedded, sectioned and stained with toluidine blue.
A clinical scoring index was used to assess disease progression. Collagen arthritic ankles and knees were given scores of 0-5 for inflammation, pannus formation and bone resorption according to the criteria in Tables 1-7.
Clinical data for ankle joint diameter were analyzed by determining the area under the dosing curve (AUC). For calculation of AUC, the daily measurements of ankle joints (using a caliper) for each rat were entered into Microsoft Excel and the area between the treatment days after the onset of disease to the termination day was computed. Means for each group were determined and percent inhibition from arthritis controls was calculated by comparing values for treated and normal animals. Data were analyzed by the Mann Whitney or Student's t test. Paw weights and histologic parameters (mean±SE) for each group were analyzed for differences using the Mann Whitney or Student's t test. In both cases, significance was set at p≦0.05.
Percent inhibition of paw weight and AUC was calculated using the following formula: % Inhibition=A−(B/A)×100
wherein A=(Mean Disease Control−Mean Normal) and B=(Mean Treated−Mean Normal).

[2] = test system: adjuvant-induced arthritis in rats; test: Adjuvant-induced arthritis (AIA) in rats; assay type: in vivo
Experimental: Male Lewis rats (7-9 weeks of age; 8 per group for arthritis, 4 per group for normal control) were acclimated for 7 days after arrival.
Acclimated animals were randomized into groups by body weight and then anesthetized with Isoflurane and given lipoidal amine (LA) in Freund's complete adjuvant (100 μL injection of 7 mg LA, intradermal administration at the base of the tail, Day 0).
Caliper measurements of normal (pre-disease) right and left ankle joints were taken on day 7 post-adjuvant injection. On day 8, dosing began for vehicle and AR-14 treatment groups. Methotrexate treatment (0.075 mg/kg) began on day 0 prior to adjuvant injection.
Once enrolled in the treatment group, treatment with once daily oral doses of AR-14 (1, 3, 10 or 30 mg/kg) was initiated. […] Animals receiving vehicle or compound were enrolled and daily dosing was initiated using a volume of 5 mL/kg for oral solutions on days 8-14. Rats were weighed on days 8-14 and caliper measurements of ankles were taken every day. Final body weights and caliper measurements of ankles and paws were taken on day 15. On day 15, animals were euthanized, both hind paws were removed, and the hind paws weighed and then placed in formalin for histopathologic analyses. Spleens were also removed, weighed and placed in formalin for histopathologic analyses.

[3] = test system: indomethacin-induced IBD in rats; test: Indomethacin-induced inflammatory bowel disease (model of Crohn's disease) in rats; assay type: in vivo
Experimental: This study evaluated AR-14 (PO, QD) in a model of Crohn's disease (indomethacin induced intestinal injury) in rats to determine if beneficial effects could be detected in this IBD model.
Rats received two subcutaneous administrations of indomethacin (7.5 mg/kg, in 5% NaHCO3) spaced 24 hours apart. Rats received once daily oral doses of vehicle, AR-14 (1, 3, 10 or 30 mg/kg) or dexamethasone (0.1 mg/kg). Rats were euthanized and evaluated for effects of treatment at day 4 post-initial indomethacin injection. Body weights were taken as well as intestinal weights per 10 cm of area at risk.
A clinical scoring index (Table 8) was used to assess disease progression. Intestines were scored for gross lesions and multiple sections of gut taken for histology (5 sections per rat spaced equally along area at risk).
Five equally spaced sections from area at risk were scored for necrosis and inflammation (0,0) (1,3) etc., according to the criteria in Tables 9 and 10.

[4] = test system: carrageenan paw edema in rats; test: Carrageenan paw edema model in rats; assay type: in vivo, rat; conditions: for paw weight: 3, 10 and 30 mg/kg oral, 2 h before carrageenan, 4 h after injection, FIG. 11; for ED50: Rattus norvegicus, oral, single dose, read-out: ED50 (paw weight); for activity compared with indomethacin: vs indomethacin 2 mg/kg (positive control)
Experimental: The rat carrageenan paw edema model of inflammation was utilized to evaluate the effectiveness of AR-13 and AR-14 in ameliorating swelling and inflammation.
Male Lewis rats (7-9 weeks of age; 10 per group) were acclimated for at least 7 days after arrival.
Acclimated animals were randomized into groups by body weight. Animals were treated orally with AR-13 or AR-14 (3, 10 or 30 mg/kg) or with a positive control (indomethacin, 2 mg/kg). After 2 hours, the animals were anesthetized with Isoflurane and given an intradermal injection of 1.2% carrageenan into the right hind footpad. Four hours after the carrageenan injection, the animals were sacrificed with carbon dioxide inhalation and both paws were removed at the medial malleolus and weighed. The difference in weight between the right (carrageenan) and left (normal) paws was calculated.

MEK = MEK inhibition in vivo (stated in summary, no method given)
[5] = 10 and 30 mg/kg vs dexamethasone 0.1 mg/kg

For O=C(NOCCO)c1cn2ccnc2c(Cl)c1Nc1ccc(Br)cc1Cl [AR-14, 7-(4-bromo-2-chlorophenylamino)-8-chloroimidazo[1,2-a]pyridine-6-carboxylic acid (2-hydroxyethoxy)-amide], the “progression of established disease (arthritis)” value ([1]; 10 mg/kg once daily oral) was “stopped the progression; also recorded: significantly inhibited”, the “ankle histopathology (joints)” value ([1]; 10 mg/kg, after 7 days) was “Near normal joints with minimal inflammation” and the “established disease, improvement” value ([1]; 60 mg/kg once daily oral) was “improvement to normal”. The “pannus formation, cartilage damage and bone resorption (ankle histopathology)” value ([1]; 1 and 3 mg/kg, after 7 days, FIG. 3) was “significantly inhibited”, the “ankle histopathology compared with indomethacin or ENBREL” value ([1]; AR-14 10 mg/kg) was “significantly better than indomethacin or ENBREL” and the “activity on ankle diameter compared with ENBREL (etanercept)” value ([1]; AR-14 10 mg/kg vs ENBREL 10 mg/kg s.c.) was “better than that of ENBREL”. The “activity on ankle diameter compared with indomethacin” value ([1]; AR-14 10 mg/kg vs indomethacin 1 mg/kg) was “equivalent to indomethacin”, the ED50 ([1]; Rattus norvegicus, 168 h, after 7 days, once daily oral, read-out: ED50 (inhibition of body weight loss)) was 4.57 mg/kg and the tolerability ([1]; all doses administered (1, 3, 10, 30, 60 mg/kg, once daily oral)) was “well tolerated”. For the same compound, the “ankle swelling (ankle/paw diameter) compared to vehicle control” value ([1]; all doses tested (1-60 mg/kg), over 7 days, FIG. 1) was “significantly inhibited”, the body weight loss ([1]; all doses tested, after 7 days, FIG. 2) was “significantly inhibited” and the joint destruction ([1]; dose of 1 mg/kg, 1 mg/kg) was “significantly inhibited; also recorded: significant inhibition”. The body weight ([1]; doses of 30 and 60 mg/kg, after 7 days) was “near normal body weights”, the “acute gross and microscopic inflammation” value ([1]; once daily oral 10 mg/kg) was “reversal” and the “progression of established disease” value ([2]; 30 mg/kg) was “stopped the progression of established disease and causes improvement to normal”. The body weight loss ([2]; 30 mg/kg, after 15 days, FIG. 5) was “significantly inhibited”, the “joints (paw weight study)” value ([2]; 30 mg/kg, after 15 days, comparable to methotrexate) was “Near normal joints with minimal inflammation” and the “splenomegaly (relative spleen weight)” value ([2]; 3, 10 and 30 mg/kg, after 15 days, FIG. 7) was “significantly inhibited”. For the same compound, the “inhibition of splenomegaly compared with methotrexate” value ([2]; 10 and 30 mg/kg) was “comparable to that seen with methotrexate”, the “activity compared with methotrexate” value ([2]; AR-14 30 mg/kg vs methotrexate 0.075 mg/kg) was “equivalent to methotrexate” and the tolerability ([2]; all doses administered (1, 3, 10, 30 mg/kg, once daily oral)) was “well tolerated”. For the same compound, the “ankle swelling (paw diameter) compared to vehicle control” value ([2]; all doses tested, over 15 days, FIG. 4) was “significantly inhibited”, the “paw weight gain (edema/inflammation) compared to vehicle control” value ([2]; all doses, after 15 days, FIG. 6) was “significantly inhibited” and the “acute gross and microscopic inflammation” value ([2]; once daily oral 30 mg/kg) was “reversal”. The “histopathology of the gut (necrosis and inflammation scored) compared with dexamethasone” value ([3]; 30 mg/kg, FIG. 10) was “significantly more efficacious than dexamethasone”, the “small intestine weight gain as a result of edema/inflammation” value ([3]; 3, 10 and 30 mg/kg, after 4 days, FIG. 9) was “significantly inhibited” and the “inhibition of gross lesion score compared with dexamethasone” value [3, 5] was “significantly better than dexamethasone”. The “inhibition of intestinal inflammation and edema, small intestine necrosis and inflammation compared with dexamethasone” value [3, 5] was “significantly better than dexamethasone”, the “gross lesion score (small intestine)” value ([3]; all doses (1, 3, 10, 30 mg/kg), after 4 days, FIG. 8) was “significantly inhibited” and the tolerability ([3]; all doses administered) was “well tolerated”. For the same compound, the “inhibition of disease (gut score and weight and microscopic changes)” value ([3]; once daily dosing at 10 mg/kg) was “significant inhibition”, the paw weight [4] was “significantly inhibit” and the ED50 [4] was about 4 mg/kg. The “activity compared with indomethacin” value [4] was “superior to the positive control indomethacin” and the “selectivity for MEK in vivo” value (MEK) was “selective inhibitor of MEK in vivo”.

In the case of O=C(NOCCO)c1cn2ccnc2c(Cl)c1Nc1ccc(Br)cc1F [AR-13, 7-(4-bromo-2-fluorophenylamino)-8-chloroimidazo[1,2-a]pyridine-6-carboxylic acid (2-hydroxyethoxy)-amide], the paw weight [4] is reported as “significantly inhibit”, the ED50 [4] is reported as about 10 mg/kg and the “activity compared with indomethacin” value [4] is reported as “superior to the positive control indomethacin”.
